Source: US20150168420A1, “BIOORTHOGONAL CHEMICAL INDUCERS OF REVERSIBLE DIMERIZATION FOR CONTROL OF PROTEIN FUNCTION IN CELLS” (MAX-PLANCK-GESELLSCHAFT ZUR FÖRDERUNG DER WISSENSCHAFTEN …, priority 2012, published 2015)

Columns and labels:
[1] = target: eDHFR and FKBP(F36V) (UniProt P0ABQ4+P62942, F37V); assay: Size exclusion chromatography and SDS-PAGE of eDHFR / FKBP(F36V) mixture with ligand; type: binding
Protocol: FIG. 1: Efficiency and specificity of SLF′-TMP (compound 13) binding (comp. example 2). • In the absence of SLF′-TMP (solid line) or in the presence of 100 μM SLF′-TMP (compound 13, dashed line). • a) size exclusion chromatography profile • b) SDS-PAGE analysis
A size exclusion chromatography profile of a mixture of 100 μM eDHFR and FKBP(F36V) was performed in the absence or the presence of 100 μM SLF′-TMP (compound 13) (see FIG. 1a).
A SDS-PAGE analysis of fractions from the gel filtration was carried out in the absence and the presence of the ligand SLF′-TMP (compound 13), respectively (see FIG. 1b).

[2] = target: ECFP-eDHFR and YFP-FKBP(F36V) (UniProt P0ABQ4+P62942, F37V); assay: FRET titration of ligand-induced heterodimerization of recombinant fusion proteins; type: binding; details: 400 nM ECFP-eDHFR and 400 nM YFP-FKBP(F36V)

CCC(C(=O)N1CCCCC1C(=O)O[C@H](CCc1ccc(OC)c(OC)c1)c1cccc(OCC(=O)NCCCOCCOCCOCCCNC(=O)COc2c(OC)cc(Cc3cnc(N)nc3N)cc2OC)c1)c1cc(OC)c(OC)c(OC)c1 (stereo partly shown) [SLF′-TMP]
binding to FKBP(F36V) and eDHFR by size exclusion chromatography ([1]; 100 μM eDHFR and FKBP(F36V), 100 μM ligand): binds effectively
binding to FKBP(F36V) and eDHFR by SDS-PAGE of gel filtration fractions ([1]; presence versus absence of ligand): binds to FKBP(F36V) and eDHFR
FRET signal (ratio of fluorescence 523 nm / 475 nm) upon titration [2]: dose-dependent increase
Kd ([2]; quadratic fit, read-out: dissociation constant Kd from FRET titration): 120 ± 40 nM
